Data as given in ChEMBL document CHEMBL5634199, “Novel Exatecan-Derived Topoisomerase-1 Inhibitors for Treating Cancer” (ACS Med Chem Lett, 2024).

system: JeKo-1; assay: Antiproliferative activity against human JeKo-1 cells assessed as reduction in cell viability by Cell-Titer Glo luminescent assay; assay type: functional, cell-based

SMILES | EC50
CC[C@@]1(O)C(=O)OCc2c1cc1n(c2=O)Cc2c-1nc1cc(F)c(C)c3c1c2[C@@H](NC(=O)C(F)CO)CC3 (stereo partly specified) | 1.5 nM
CC[C@@]1(O)C(=O)OCc2c1cc1n(c2=O)Cc2c-1nc1cc(F)c(C)c3c1c2[C@@H](NC(=O)[C@H](O)CCO)CC3 | 1.4 nM
CC[C@@]1(O)C(=O)OCc2c1cc1n(c2=O)Cc2c-1nc1cc(F)c(C)c3c1c2[C@@H](NC(=O)C(C)(N)C(F)(F)F)CC3 (stereo partly specified) | 1.6 nM
CC[C@@]1(O)C(=O)OCc2c1cc1n(c2=O)Cc2c-1nc1cc(F)c(C)c3c1c2[C@@H](NC(=O)C(C)(O)CO)CC3 (stereo partly specified) | 1.2 nM
CC[C@@]1(O)C(=O)OCc2c1cc1n(c2=O)Cc2c-1nc1cc(F)c(C)c3c1c2[C@@H](NC(=O)[C@@H](O)CO)CC3 | 1.4 nM
CC[C@@]1(O)C(=O)OCc2c1cc1n(c2=O)Cc2c-1nc1cc(F)c(C)c3c1c2[C@@H](NC(=O)C(F)(F)C(C)O)CC3 (stereo partly specified) | 1.6 nM
